Experimental data as given in PMC8218531 (Structure (London, England : 1993), 2021).
Like-named read-outs stand apart in the source and are kept apart here.

Columns and labels:
SARS-CoV-2 M^pro [1] = biological target: T1, SARS-CoV-2 M^pro (Severe acute respiratory syndrome coronavirus 2, UniProt P0DTD1); assay: Enzyme kinetics of M^pro with inhibitors; assay type: biochemical; details: for in vitro activity against M^pro in words: compounds of this study with hydrophilic groups in S4
M^pro = details: covalent inhibitors, ref Dai et al., 2020, Ma et al., Qiao et al., 2021; cited from earlier work
SARS-CoV-2 M^pro [2] = biological target: T1, SARS-CoV-2 M^pro; details: cited from earlier work

Compound | in vitro activity against M^pro in words (SARS-CoV-2 M^pro [1]) | IC50 in words (M^pro) | further results
CC(C)(O)CCOc1cc(Cl)cc(-c2cc(-c3c[nH]c(=O)[nH]c3=O)cn(-c3cccnc3)c2=O)c1 [Compound 29, 5-(3-(3-Chloro-5-(3-hydroxy-3-methylbutoxy)phenyl)-2-oxo-2H-[1,3'-bipyridin]-5-yl) pyrimidine-2,4(1H,3H)-dione] | high-nanomolar range |  | IC50 (SARS-CoV-2 M^pro [1]): 0.25 to 0.5 µM; decrease in activity compared with 11 (SARS-CoV-2 M^pro [1]; compared with compound 11): greater than 2 fold
O=CC(CC1CCNC1=O)NC(=O)C(Cc1cccc(F)c1)NC(=O)c1cc2ccccc2[nH]1 (centres unmarked) [Compound 11b] |  | Low-nanomolar | 
O=C1CN(CCOc2cc(Cl)cc(-c3cc(-c4c[nH]c(=O)[nH]c4=O)cn(-c4cccnc4)c3=O)c2)CCN1 [Compound 50, 5-(3-(3-Chloro-5-(2-(3-oxopiperazin-1-yl)ethoxy)phenyl)-2-oxo-2H-[1,3'-bipyridin]-5-yl) pyrimidine-2,4(1H,3H)-dione] | high-nanomolar range |  | 
CC(C)C[C@H](NC(=O)OCc1ccccc1)C(=O)N[C@@H](CC1CCNC1=O)C(O)S(=O)(=O)[O-].[Na+] (some centres unmarked) [GC-376] |  | Low-nanomolar | 
N#Cc1ccccc1-c1cc(-c2ccccn2)cn(-c2ccccc2)c1=O [Perampanel, perampanel] |  |  | IC50 (SARS-CoV-2 M^pro [2]): 100 to 250 µM
O=CC(CC1CCNC1=O)NC(=O)C(CC1CCCCC1)NC(=O)c1cc2ccccc2[nH]1 (centres unmarked) [Compound 11a] |  | Low-nanomolar | 
